Reference: EP2949324A1, “Prevention and/or treatment of ischemia/reperfusion injury” (Consorci Institut Catala de Ciencies Cardiovasculars, priority 2014, dated 2015)

Legend:
[1] = test system: canine cardiac ischemia model; settings: infused during reperfusion; cited from earlier work
Na^+/H^+ exchange system = Na^+/H^+ exchange system (Homo sapiens, UniProt P19634); settings: recent clinical trial; cited from earlier work
[2] = cited from earlier work; for infarct size: given pre-ischemia
PKCε = PKCε expression/activation in the forming scar (Western blot); format: in vivo, swine; settings: scar tissue, compared to placebo-control animals
Procedure: (§1) Western Blot analysis: Protein levels of: 1) apoptosis markers (truncated-caspase-3); 2) cardioprotective kinases [PKC-ε and PKC-ε phosphorylated at Ser^729 (Santa Cruz) and Akt/PKB (Santa Cruz) and Akt phosphorylated at Ser^473 (Cell signaling)]; 3) total eNOS and eNOS phosphorilated at Ser^1177 (Cell Signaling); and 4) fibrosis [TGFP type II receptor (TPRII; Abcam) and phosphorylated-Smad2/3 (Ser^423/425; Santa Cruz)] were assessed.

[3] = test system: Akt/eNOS signaling pathway; experiment: Akt/eNOS signaling (Western blot) in myocardium and coronary arteries; format: in vivo, swine
Procedure: as §1
In addition, 3 weeks post-MI, the coronary arteries of all animals were isolated, cleaned of surrounding tissue and snap frozen for further analysis of coronary phosphorylated-eNOS protein expression.

[4] = test system: pig model of closed-chest coronary balloon occlusion/reperfusion; experiment: Myocardial lipotoxicity: oil red-O staining and lipid characterization (TLC) of scar and NIM; format: in vivo, swine; settings: 3 weeks post-MI
Procedure: (§2) To that end, serially cut 5 µm sections from OCT-embedded samples were stained for lipids (oil red-O, ORO) and interstitial collagen (Sirius Red). Images were captured with a Nikon eclipse 80i microscope and digitalized by a Retiga-1300i. Staining was calculated by a single blinded observer from an average of 5-fields/sample as content (%)=[positive stained area/(total tissue area- vascular luminal areas)]x100 using ImageJ®.

[5] = test system: pig model of closed-chest coronary balloon occlusion/reperfusion; experiment: Transthoracic echocardiography (LVEF, SF); format: in vivo, swine
Procedure: Transthoracic echocardiography assessment was performed in all animals before inducing ischemia (baseline), after 75 min of ischemia (prior β-OH-S infusion), 2.5 h post-reperfusion and 3 weeks post-MI using an echocardiographyc system Phillips iE33 equipped with a S5-1 Sector Array transducer. Left ventricle ejection fraction (LVEF) and shortening fraction (SF) were measured in the short-axis M-mode right parasternal projection in a plane below the mitral valves and perpendicular to the LV (left ventricle).

[6] = test system: TβRII/Smad2/3 signaling pathway; experiment: Reparative fibrosis of the forming scar (TβRII/Smad2/3, myofibroblasts, collagen); format: in vivo, swine
Procedure: (§3) Transcriptomic analysis: It was analyzed by real-time PCR (Applied Biosystems) mRNA levels for: 1) apoptosis-related markers [extrinsic-(Fas Receptor/CD95 and caspase-8), intrinsic-(Bax, Bcl2, and P53) pathways and caspase-3]; 2) intracellular calcium handling receptors [sarcoendoplasmic reticulum Ca^2+ATPase 2 (SERCA2) and the ryanodine receptor (RyR2)]; and 3) fibrous tissue formation (collagen, Smad2 and Smad3). The threshold cycle values were determined and normalized to the housekeeping gene 18S rRNA.
as §1, §2
In addition, myofibroblasts detection in the scar tissue was performed by double staining with mouse monoclonal vimentin (Dako) and rabbit polyclonal alpha-SMA 1:50 (Abeam). Alexa fluor 488 donkey anti-mouse and alexa fluor 546 goat anti-rabbit were used as secondary antibodies, respectively and Hoechst for nuclear staining. Images were captured by confocal microscopy (20x).

LDL = experiment: Resistance of LDL against copper induced in vitro oxidation and TBARS; format: in vivo, swine; settings: 3 week oral treatment; p<0.05
Procedure: (§4) Blood samples were collected at 2.5 h post-reperfusion and 3 weeks post-MI to evaluate lipoprotein resistance to oxidation. The inventors firstly assessed HDL-antioxidant activity by a method based on the ability of HDL to reverse oxidation of LDL. Results were expressed as the percentage of total oxidized LDL considering that control oxLDL is 100%. In addition, resistance of LDL against copper induced in vitro oxidation was also determined in EDTA-blood samples as previously described. The inventors also determined the lipid peroxide content of oxidized-LDL by assessing thiobarbituric-acid-reactive substances (TBARS).

RhoA = RhoA in total and cytosolic-membrane fractions of cardiac tissue (immunoblotting); format: in vivo, swine; settings: for total amount of RhoA: myocardium, […] post-reperfusion and 3 weeks post-MI
Procedure: RhoA (Santa Cruz) was determined in total and cytosolic-membrane fractions of jeopardized cardiac tissue of all animals as previously described by Vilahur G 2009 (ad supra).

[7] = test system: canine hepatic ischemia/reperfusion model; settings: given prior to reperfusion; cited from earlier work
[8] = test system: pig model of closed-chest coronary balloon occlusion/reperfusion; experiment: Morphometric determination of infarct size (Evan's Blue / TTC); format: in vivo, swine; settings: single loading dose 0.3 mg/kg i.v. prior reperfusion; p<0.05
Procedure: This hyperlipidemic diet contains 24.82% proteins, 64.20% carbohydrates, 10.98% fats and 16,834.7 kJ. […] After this 10 day diet period animals underwent a closed-chest 90 min mid-left anterior descending (LAD) coronary balloon occlusion. […] At minute 90, the balloon was deflated to achieve coronary artery reperfusion. […] The incidence of reperfusion-related arrhythmias during the first 2.5 h upon balloon deflation was documented in all animals. Animals had continuous ECG and hemodynamic monitoring throughout all procedures. 2.5 h post-reperfusion Evan's Blue dye was injected in anesthetized animals through the left atrium to outline the area at risk (AAR) after which the hearts of the animals were arrested with potassium chloride and rapidly excised. Hearts were sectioned into 6 transverse slices parallel to the atrioventricular ring. Consecutive slices were alternatively collected for infarct size analysis (TTC; triphenyltetrazolium chloride staining) and molecular studies of the ischemic myocardium (IM) and non-ischemic myocardium (NIM).

[9] = test system: mitochondria isolated from the ischemic myocardium; experiment: Mitochondrial membrane potential by flow cytometry (JC-1); format: in vivo, swine; settings: […] of reperfusion, p<0.05
Procedure: Mitochondria were isolated from the ischemic myocardium of pigs subjected to 2.5 h of reperfusion as previously reported (Boehm et al. 2001 Am J Physiol Heart Circ Physiol 280: H977-983). Mitochondrial membrane potential (Δψm) was measured by flow cytometry using the ratiometric dye 5,5',6,6'-tetrachloro-1,1',3,3'-tetraethylbenzimidazol carbocyanine iodide (JC-1; Molecular Probes). Values were expressed as red fluorescence activity. Isolated mitochondria treated with valinomycin (Sigma), which decreases Δψm, were used as control.

[10] = test system: pig model of closed-chest coronary balloon occlusion/reperfusion; experiment: Neutrophil detection in ischemic myocardium (anti-neutrophil elastase staining); format: in vivo, swine; settings: […] post-reperfusion, p<0.05
Procedure: (§5) Paraffin-embedded LAD and ischemic myocardial tissue of animals sacrificed 2.5 h post-reperfusion were cut into 5-µm-thick for 8-hydroxyguanosine staining (Abcam ab48508), a measurement indicative of oxidative stress-induced DNA-damage. In addition, optimal cutting temperature (OCT)-embedded ischemic myocardial tissue of animals sacrificed 2.5 h post-reperfusion was stained for neutrophils detection (anti-neutrophil elastase; Abcam). Staining was calculated by a single blinded observer from an average of 5-fields/animal as % of stained area. Images were captured by Nikon Eclipse 80i microscope and digitized by Retiga 1300i Fast camera.

[11] = test system: apoptosis-related markers; experiment: Apoptosis-related markers in ischemic myocardium (real-time PCR, Western blot, TUNEL); format: in vivo, swine
Procedure: (§6) Tissue samples obtained from the IM (2.5 h post-reperfusion)/scar (3 weeks post-MI) and NIM of all animals were pulverized and homogenized in Tripure® or lysis buffer for RNA and protein isolation, respectively.
as §3, §1
Isolated mitochondrial extracts were incubated against Bcl-2 phosphorylated at Ser^87.

oxLDL = experiment: HDL-antioxidant activity (ability of HDL to reverse oxidation of LDL); format: in vivo, swine; settings: HDL isolated […] post-reperfusion; p<0.05
Procedure: as §4

[12] = test system: pig model of closed-chest coronary balloon occlusion/reperfusion; experiment: Vascular/cardiac DNA-oxidative damage (8-hydroxyguanosine staining); format: in vivo, swine; settings: […] post-reperfusion
Procedure: as §5

[13] = test system: pig model of closed-chest coronary balloon occlusion/reperfusion; experiment: Reperfusion-related arrhythmias and hemodynamic monitoring; format: in vivo, swine
Procedure: This hyperlipidemic diet contains 24.82% proteins, 64.20% carbohydrates, 10.98% fats and 16,834.7 kJ. […] After this 10 day diet period animals underwent a closed-chest 90 min mid-left anterior descending (LAD) coronary balloon occlusion. […] At minute 90, the balloon was deflated to achieve coronary artery reperfusion. […] The incidence of reperfusion-related arrhythmias during the first 2.5 h upon balloon deflation was documented in all animals. Animals had continuous ECG and hemodynamic monitoring throughout all procedures.

SERCA2 = experiment: Real-time PCR of calcium handling receptor mRNA; format: in vivo, swine
Procedure: as §6, §3

RyR2 = experiment: Real-time PCR of calcium handling receptor mRNA; format: in vivo, swine
Procedure: as §6, §3

endothelin receptors = settings: cited from earlier work; for cardiac function and myocardial relaxation: at 1 h; for difference compared to placebo-treated animals: at 24 h
[14] = ischemic myocardium, […] post-reperfusion

Na^+/H^+ exchange system, sequence (P19634 whole entry): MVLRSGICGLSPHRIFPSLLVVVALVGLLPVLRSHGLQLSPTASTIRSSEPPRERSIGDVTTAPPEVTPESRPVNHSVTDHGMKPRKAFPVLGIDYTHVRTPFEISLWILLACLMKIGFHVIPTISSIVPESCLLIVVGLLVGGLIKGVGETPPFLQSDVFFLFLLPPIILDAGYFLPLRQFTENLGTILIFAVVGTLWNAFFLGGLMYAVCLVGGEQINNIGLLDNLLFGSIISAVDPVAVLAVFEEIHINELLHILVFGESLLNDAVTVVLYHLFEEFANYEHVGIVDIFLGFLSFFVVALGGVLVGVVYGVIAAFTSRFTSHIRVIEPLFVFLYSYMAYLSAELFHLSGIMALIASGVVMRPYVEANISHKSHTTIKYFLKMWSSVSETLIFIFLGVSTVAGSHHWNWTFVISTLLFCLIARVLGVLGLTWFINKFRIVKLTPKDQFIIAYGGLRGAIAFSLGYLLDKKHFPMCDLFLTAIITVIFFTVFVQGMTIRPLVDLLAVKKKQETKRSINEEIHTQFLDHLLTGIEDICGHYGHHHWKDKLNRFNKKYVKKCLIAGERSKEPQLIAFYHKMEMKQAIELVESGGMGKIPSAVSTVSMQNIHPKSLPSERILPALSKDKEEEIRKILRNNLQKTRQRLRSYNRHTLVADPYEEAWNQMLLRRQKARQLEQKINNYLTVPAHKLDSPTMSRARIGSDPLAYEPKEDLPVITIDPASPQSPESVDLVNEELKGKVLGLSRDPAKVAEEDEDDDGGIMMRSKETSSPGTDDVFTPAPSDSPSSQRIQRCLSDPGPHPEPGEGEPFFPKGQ

CCNC(=O)[C@H]1O[C@@H](n2cnc3c(N)nc(NCCc4ccc(CCC(=O)O)cc4)nc32)[C@H](O)[C@@H]1O [CGS-21680]
Bax [1]: downregulated
Bcl-2 levels [1]: upregulated
neutrophil accumulation in the perinecrotic myocardium [1]: reduced

CC(C)c1ccc(C(=O)NC(=N)N)cc1S(C)(=O)=O [Cariporide]
reperfusion injury (improved left ventricular (LV) dysfunction) (Na^+/H^+ exchange system): attenuation of reperfusion injury

CS(=O)(=O)O.Cc1cccc2c1cc(C(=O)N=C(N)N)n2C [SM-20550]
effect on infarct size ([2]; given post-ischemia): beneficial
infarct size [2]: reduced infarct size in a dose-dependent manner

CCC(C)(C)C(=O)O[C@H]1C[C@@H](C)C=C2C=C[C@H](C)[C@H](CC[C@@H]3C[C@@H](O)CC(=O)O3)[C@H]21 [Simvastatin, (1S,3R,7S,8S,8aR)-8-{2-[(2R,4R)-4-hydroxy-6-oxotetrahydro-2H-pyran-2-yl]ethyl}-3,7-dimethyl-1,2,3,7,8,8a hexahydronaphthalen-1-yl 2,2-dimethylbutanoate]
PKCε expression and activation (PKCε): enhanced both the expression and activation
P-eNOS ([3]; coronary arteries at 3-weeks post-MI): enhanced
P-Akt/P-eNOS pathway activation ([3]; evolving scar up to 3 weeks post-AMI): persisted
free-cholesterol content ([4]; different cardiac zones): No differences
less cholesteryl-ester accumulation as compared to placebo-controls ([4]; forming scar): 50%
LVEF and SF improvement ([5]; up to 3 weeks post-MI, oral simvastatin): persisted
Smad3 mRNA levels ([6]; different cardiac regions, 3 weeks post-MI): no changes
collagen fibrils deposition ([6]; healing scar, compared to control animals and NIM): higher
α-SMA/vimentin positive myofibroblasts ([6]; healing scar, data not shown): higher detection
Smad2/3 (downstream effector of TβRII) ([6]; scar area, 3 weeks post-MI): activation
TβRII protein expression ([6]; scar area, 3 weeks post-MI): marked and significant increase
Smad2 gene expression ([6]; scar tissue, 3 weeks post-MI): significantly upregulated
decrease in TBARS levels as compared to the experimental day (LDL): 32%
prolongation of the lag time as compared to control/placebo animals (LDL): 4 times
total amount of RhoA (RhoA): unchanged
decrease of RhoA membrane translocation (RhoA; scar, after the 3-week oral treatment, p<0.001 vs control): persisted

Nc1ncnc2c1ncn2[C@@H]1O[C@H](CO)[C@@H](O)[C@H]1O [adenosine, Adenosine]
aspartate aminotransferase (AST) and alanine transaminase (ALT) [7]: attenuated the rise
hepatic glutathione stores [7]: restored
neutrophil accumulation and superoxide radical production [7]: inhibition

O=C(NCCO[N+](=O)[O-])c1cccnc1 [nicorandil]
infarct size [2]: reduced infarct size in a dose-dependent manner

CCC(C)(C)C(=O)OC1CC(C)C=C2C=CC(C)C(CCC(O)CC(O)CC(=O)O)C21 (stereo not drawn) [β-OH-S, β-hydroxy acid derivative of simvastatin]
salvage of the LV-at-risk as compared to reperfusion alone [8]: 40%
Δψm relative to vehicle/control [9]: 2 times
P-Akt/P-eNOS pathway ([3]; ischemic myocardium, acute administration): activating
attenuation of neutrophils infiltration as compared to vehicle/control [10]: ~70%
mitochondrial Bcl-2 activation [11, 14]: diminished
truncated caspase-3 expression [11, 14]: reduced
apoptotic cell counts (TUNEL staining) ([11]; ischemic myocardium, compared to vehicle/control, data not shown): low apoptotic cell counts
upregulation of genes of death receptor- and mitochondrial-related apoptotic pathways ([11]; jeopardized myocardium, […] post-reperfusion): prevented the upregulation
higher HDL antioxidant activity against LDL oxidation relative to controls (oxLDL): 25%
reperfusion-related oxidative DNA damage ([12]; coronary artery): absence of DNA oxidative damage
reperfusion-related oxidative DNA damage ([12]; ischemic myocardial tissue): absence of DNA oxidative damage
LVEF improvement ([5]; […] after reperfusion): 9.4%
SF improvement ([5]; […] after reperfusion): 6.0%
RhoA membrane translocation (activation), membrane-to-cytosol ratio (RhoA; intravenous infusion, ischemic myocardium, […] post-reperfusion, p<0.001 vs control): markedly decreased
total amount of RhoA (RhoA): unchanged
incidence of reperfusion-related ventricular arrhythmias ([13]; first […] upon balloon deflation, 3 out of 12): 25 % animals
hemodynamic parameters (heart rate and mean blood pressure) ([13]; throughout the study): not affected
SERCA2 mRNA (SERCA2; NIM): 1.5±0.3 SERCA/18S rRNA
SERCA2 mRNA (SERCA2; ischemic myocardium): 1.9±0.5 SERCA/18S rRNA
RyR2 mRNA (RyR2; NIM): 0.2±0.07 RyR2/18S rRNA
RyR2 mRNA (RyR2; ischemic myocardium): 0.14±0.03 RyR2/18S rRNA

BQ-123
cardiac function and myocardial relaxation (endothelin receptors): significantly better
difference compared to placebo-treated animals (endothelin receptors): no longer evident

BQ-788
cardiac function and myocardial relaxation (endothelin receptors): significantly better
difference compared to placebo-treated animals (endothelin receptors): no longer evident
